Tests used:
[1] = test system: human hepatoma cells (HepG2); experiment: tumor cell proliferation inhibition test, MTT method, HepG2; type: cell-based; details: 48 hours treatment, read-out: Half Inhibitory Concentration IC50 HepG2
Procedure: (§1) The compounds of the present invention were subjected to tumor cell proliferation inhibition test, and conventional MTT method was used.
(§2) Cell lines: human hepatoma cells (HepG2), human lung cancer cells (A-549), human gastric cancer cells (SGC-7901). The culture medium was DMEM+15% NBS+double antibody.
(§3) Sample solution preparation: after dissolving with DMSO (Merck), PBS (−) was added to obtain 100 μmol/L solution or homogeneous suspension. The solution was diluted with PBS (−) in DMSO to a final concentration of 0.1, 1, 10, 20, 40, 60, 80, 100 μmol/L.
(§4) Gossypol was used as control solution, prepared under the same condition.
(§5) Cell culture: adherent growth Tumor cells were cultured in 1640 medium containing 10% inactivated neonatal bovine serum and penicillin, streptomycin (1 million U/L), placed in carbon dioxide incubator at 37° C., 5% CO2, and saturated humidity. Cells were treated serially passaged 2-3 times. The first culture was washed with PBS 2 times, and digested with trypsin. Fresh culture medium was added evenly, cells were adjusted to a appropriate concentration and transferred into a new culture flask. Cell in an exponential phase were chosen for the tests.
(§6) Experimental Principle: Living cells mitochondria in the dehydrogenase can reduce yellow MTT to water-insoluble blue-violet product MT (MTT formazan), deposited in the cells. The amount of production is proportional to the number of living cells. […] DMSO can dissolve blue violet crystals, and the color depth is proportional to the amount contained, so the absorbance measured by the microplate reader can reflect the cell viability.
(§7) Methods: The exponential phase cells were digested and counted and seeded in 96-well plates at a density of 2×10^4/mL at 100 μl per well. After 24 hours of incubation, the cells to be tested were treated with 0.1, 1, 10, 20, 40, 60, 80, 100 μmol/L of the compounds. Each experimental group had 5 wells in each concentration, and the culture medium containing 0.4% DMSO was used as control. After 48 hours, the supernatant was discarded, and 100 μl of MTT ((2-(4,5-dimethyl-2-thiazolyl)-3,5-diphenyl-2H-tetrazole hydrobromide) (1 mg/mL) was added to each well. After another 4 hours, the supernatant was discarded, and 100 μl of DMSO was added to each well. After mixing, the absorbance was measured at 570 nm using a microplate reader. An IC50 calculation software was used to determine the half inhibitory concentration (IC50).

[2] = test system: human lung cancer cells (A-549); experiment: tumor cell proliferation inhibition test, MTT method, A-549; type: cell-based; details: A549 cells, 48 hours treatment, read-out: Half Inhibitory Concentration IC50 A549
Procedure: as §1, §2, §3, §4, §5, §6, §7

[3] = test system: human gastric cancer cells (SGC-7901); experiment: tumor cell proliferation inhibition test, MTT method, SGC-7901; type: cell-based; details: SGC-7901 cells, 48 hours treatment, read-out: Half Inhibitory Concentration IC50 SGC-7901
Procedure: as §1, §2, §3, §4, §5, §6, §7

[4] = test system: HepG2, A-549, SGC-7901 tumor cells; experiment: anti-tumor activity test, MTT method, summary over the three cell lines tested; type: cell-based, human
Procedure: as §1, §2, §3, §4
as §5, with “Cell in an exponential phase were chosen for the tests.” left out
as §6, with “the” for “the cells. The amount of production is proportional to the number of living”
as §7, with “After 24 hours of incubation, the cells to be tested were treated with 0.1, 1, 10, 20, 40, 60, 80, 100 μmol/L of the compounds. Each experimental group had 5 wells in each concentration, and the culture medium containing 0.4% DMSO was used as control.” left out

| SMILES | melting point | IC50 [1] | IC50 [2] | IC50 [3] | antitumor activities (in words) [4] |
| --- | --- | --- | --- | --- | --- |
| Cc1cc2c(C(C)C)c(O)c(O)c(/C=N/N=C3\C(=O)N(Cc4ccccc4)c4ccc(Cl)cc43)c2c(O)c1-c1c(C)cc2c(C(C)C)c(O)c(O)c(/C=N/N=C3/C(=O)N(Cc4ccccc4)c4ccc(Cl)cc43)c2c1O [Compound 7, (3Z,3′E)-3,3′-(((1E, 1′E)-(1,1′,6,6′,7,7′-hexahydroxy-5,5′-diisopropyl-3,3′-dimethyl-[2,2′-binaphthalene]-8,8′-diyl)bis(methanylylidene))bis(hydrazine-2,1-diylidene))bis(1-benzyl-5-chloroindolin-2-one)] |  | 14.7 ± 1.12 µM | 16.3 ± 1.21 µM | 12.5 ± 1.93 µM | good activities |
| Cc1ccc2c(c1)/C(=N/N=C/c1c(O)c(O)c(C(C)C)c3cc(C)c(-c4c(C)cc5c(C(C)C)c(O)c(O)c(/C=N/N=C6/C(=O)Nc7ccc(C)cc76)c5c4O)c(O)c13)C(=O)N2 [Compound 1, (3Z,3′E)-3,3′-(((1E,1′E)-(1,1′,6,6′,7,7′-hexahydroxy-5,5′-diisopropyl-3,3′-dimethyl-[2,2′-binaphthalene]-8,8′-diyl)bis(methanylylidene))bis(hydrazine-2,1-diylidene))bis(5-methylindolin-2-one)] | 187.5 °C | > 100 µM | > 100 µM | > 100 µM |  |
| Cc1cc2c(C(C)C)c(O)c(O)c(/C=N/N=C3\C(=O)N(C)c4ccccc43)c2c(O)c1-c1c(C)cc2c(C(C)C)c(O)c(O)c(/C=N/N=C3/C(=O)N(C)c4ccccc43)c2c1O [Compound 3, (3Z,3′E)-3,3′-(((1E, 1′E)-(1,1′,6,6′,7,7′-hexahydroxy-5,5′-diisopropyl-3,3′-dimethyl-[2,2′-binaphthalene]-8,8′-diyl)bis(methanylylidene))bis(hydrazine-2,1-diylidene))bis(1-methylindolin-2-one)] |  | 8.67 ± 0.74 µM | 7.87 ± 0.91 µM | 16.6 ± 1.46 µM | excellent antitumor activities |
| Cc1cc2c(C(C)C)c(O)c(O)c(/C=N/N=C3\C(=O)N(C(C)C)c4ccc(Cl)cc43)c2c(O)c1-c1c(C)cc2c(C(C)C)c(O)c(O)c(/C=N/N=C3/C(=O)N(C(C)C)c4ccc(Cl)cc43)c2c1O [Compound 6, (3Z,3′E)-3,3′-(((1E,1′E)-(1,1′,6,6′,7,7′-hexahydroxy-5,5′-diisopropyl-3,3′-dimethyl-[2,2′-binaphthalene]-8,8′-diyl)bis(methanylylidene))bis(hydrazine-2,1-diylidene))bis(5-chloro-1-isopropylindolin-2-one)] | 216.3 °C | > 100 µM | 66.5 ± 2.53 µM | > 100 µM |  |
| CCN1C(=O)/C(=N\N=C\c2c(O)c(O)c(C(C)C)c3cc(C)c(-c4c(C)cc5c(C(C)C)c(O)c(O)c(/C=N/N=C6/C(=O)N(CC)c7ccc(Cl)cc76)c5c4O)c(O)c23)c2cc(Cl)ccc21 [Compound 5, (3Z,3′E)-3,3′-(((1E, 1′E)-(1,1′,6,6′,7,7′-hexahydroxy-5,5′-diisopropyl-3,3′-dimethyl-[2,2′-binaphthalene]-8,8′-diyl)bis(methanylylidene))bis(hydrazine-2,1-diylidene))bis(5-chloro-1-ethylindolin-2-one)] |  | 8.92 ± 0.59 µM | 19.3 ± 1.62 µM | 13.7 ± 1.11 µM | good activities |

The next lines start with results.

| melting point | IC50 [1] | IC50 [2] | IC50 [3] | SMILES | antitumor activities (in words) [4] |
| --- | --- | --- | --- | --- | --- |
| 204.3 °C | > 100 µM | > 100 µM | > 100 µM | Cc1cc2c(C(C)C)c(O)c(O)c(/C=N/N=C3\C(=O)N(C)c4ccc(Cl)cc43)c2c(O)c1-c1c(C)cc2c(C(C)C)c(O)c(O)c(/C=N/N=C3/C(=O)N(C)c4ccc(Cl)cc43)c2c1O [Compound 4, (3Z,3′E)-3,3′-(((1E, 1′E)-(1,1′,6,6′,7,7′-hexahydroxy-5,5′-diisopropyl-3,3′-dimethyl-[2,2′-binaphthalene]-8,8′-diyl)bis(methanylylidene))bis(hydrazine-2,1-diylidene))bis(5-chloro-1-methylindolin-2-one)] |  |
| 190.7 °C | 29.4 ± 2.1 µM | 68.3 ± 2.15 µM | > 100 µM | Cc1cc2c(C(C)C)c(O)c(O)c(/C=N/N=C3\C(=O)Nc4ccc(Cl)cc43)c2c(O)c1-c1c(C)cc2c(C(C)C)c(O)c(O)c(/C=N/N=C3/C(=O)Nc4ccc(Cl)cc43)c2c1O [Compound 2, (3Z,3′E)-3,3′-(((1E,1′E)-(1,1′,6,6′,7,7′-hexahydroxy-5,5′-diisopropyl-3,3′-dimethyl-[2,2′-binaphthalene]-8,8′-diyl)bis(methanylylidene))bis(hydrazine-2,1-diylidene))bis(5-chloroindolin-2-one)] |  |
| 219.9 °C | > 100 µM | > 100 µM | 88.8 ± 3.02 µM | Cc1cc2c(C(C)C)c(O)c(O)c(/C=N/N=C3\C(=O)N(Cc4ccccc4)c4ccccc43)c2c(O)c1-c1c(C)cc2c(C(C)C)c(O)c(O)c(/C=N/N=C3/C(=O)N(Cc4ccccc4)c4ccccc43)c2c1O [Compound 8, (3Z,3′E)-3,3′-(((1E, 1′E)-(1,1′,6,6′,7,7′-hexahydroxy-5,5′-diisopropyl-3,3′-dimethyl-[2,2′-binaphthalene]-8,8′-diyl)bis(methanylylidene))bis(hydrazine-2,1-diylidene))bis(1-benzylindolin-2-one)] |  |

Source: US10729675B2, “Gossypol isatin schiff base compounds with antitumor activities and a method of preparing the same” (SHAANXI UNIVERSITY OF SCIENCE AND TECHNOLOGY, priority 2018, dated 2020)
